Measured values taken from patent publication US8916499B2, “Herbicidal compositions comprising 4-amino-3-chloro-5-fluoro-6-(4-chloro-2-fluoro-3-methoxyphenyl) pyridine-2-carboxylic acid or a derivative thereof and a protoporphyrinogen oxidase inhibitor” (Dow AgroSciences LLC, priority 2012, dated 2014).

Tests used:
ECHOR = assay: In-water applied weed control, transplanted paddy rice, greenhouse (Example II); assay type: in vivo, Echinochloa oryzoides (Ard.) Fritsch
IPOHE = assay: Postemergence foliar-applied weed control, direct seeded rice, greenhouse (Example I); assay type: in vivo, Ipomoea hederacea Jacq.
CYPIR = assay: as above; assay type: in vivo, Cyperus iria L.
SCPMA = assay: In-water applied weed control, transplanted paddy rice, greenhouse (Example II); assay type: in vivo; details: Bifenox (Fox ®) 180 g ai/ha alone
PAPRH = assay: Postemergence foliar herbicidal activity of mixtures in cereal crops, greenhouse (Example III); assay type: in vivo, Papaver rhoeas L.; details: foliar-applied
Protocol: Seeds of the desired test plant species were planted in Sun Gro MetroMix® 306 planting mixture, which typically has a pH of 6.0 to 6.8 and an organic matter content of about 30 percent, in plastic pots with a surface area of 103.2 square centimeters (cm^2). When required to ensure good germination and healthy plants, a fungicide treatment and/or other chemical or physical treatment was applied. The plants were grown for 7-36 days in a greenhouse with an approximate 14 hour photoperiod which was maintained at about 18° C. during the day and about 17° C. during the night. Nutrients and water were added on a regular basis and supplemental lighting was provided with overhead metal halide 1000-Watt lamps as necessary. The plants were employed for testing when they reached the second or third true leaf stage.
Treatments consisted of the benzyl ester of 4-amino-3-chloro-5-fluoro-6-(4-chloro-2-fluoro-3-methoxy-phenyl)pyridine-2-carboxylic acid (Compound A), formulated as an SC, a second cereal herbicide alone and then both in combination.
Other herbicidal components were applied on an active ingredient basis and included PSII-inhibiting herbicides.
Measured aliquots of benzyl ester of 4-amino-3-chloro-5-fluoro-6-(4-chloro-2-fluoro-3-methoxy-phenyl)pyridine-2-carboxylic acid (Compound A) were placed in 25 milliliter (mL) glass vials and diluted in a volume of 1.25% (v/v) Agri-Dex® crop oil concentrate to obtain stock solutions. Compound requirements are based upon a 12 mL application volume at a rate of 187 liters per hectare (L/ha). Spray solutions of the second cereal herbicide and experimental compound mixtures were prepared by adding the stock solutions to the appropriate amount of dilution solution to form 12 mL spray solution with active ingredients in two- and three-way combinations. Formulated compounds were applied to the plant material with an overhead Mandel track sprayer equipped with an 8002E nozzle calibrated to deliver 187 L/ha over an application area of 0.503 square meters (m^2) at a spray height of 18 inches (46 cm) above average plant canopy. Control plants were sprayed in the same manner with the solvent blank.
The treated plants and control plants were placed in a greenhouse as described above and watered by sub-irrigation to prevent wash-off of the test compounds. After 20-22 days, the condition of the test plants as compared with that of the control plants was determined visually and scored on a scale of 0 to 100 percent where 0 corresponds to no injury and 100 corresponds to complete kill.
Colby's equation was used to determine the herbicidal effects expected from the mixtures (Colby, S. R. 1967. Calculation of the synergistic and antagonistic response of herbicide combinations. Weeds 15:20-22.).
The following equation was used to calculate the expected activity of mixtures containing two active ingredients, A and B: Expected=A+B−(A×B/100)

LEFCH [1] = assay: Postemergence foliar-applied weed control, direct seeded rice, greenhouse (Example I); assay type: in vivo, Leptochloa chinensis (L.) Nees; details: g ae/ha Compound A Acid+g ai/ha carfentrazone-ethyl: r39 19.4+0, r40 0+28, r41 19.4+28
LEFCH [2] = assay: In-water applied weed control, transplanted paddy rice, greenhouse (Example II); assay type: in vivo, Leptochloa chinensis (L.) Nees
BRAPP = assay: Postemergence foliar-applied weed control, direct seeded rice, greenhouse (Example I); assay type: in vivo, Brachiaria platyphylla (Griseb.) Nash; details: g ae/ha Compound A Acid+g ai/ha pyraclonil: r11 4.38+0, r12 0+33.75, r13 0+67.5, r14 0+135, r15 4.38+33.75, r16 4.38+67.5, r17 4.38+135
ECHCO = assay: as above; assay type: in vivo, Echinochloa colona (L.) Link; details: g ae/ha Compound A Acid+g ai/ha saflufenacil: r24 4.38+0, r25 0+5, r26 0+10, r27 0+20, r28 4.38+5, r29 4.38+10, r30 4.38+20
CYPRO = assay: In-water applied weed control, transplanted paddy rice, greenhouse (Example II); assay type: in vivo, Cyperus rotundus L.
ECHCG = assay: as above; assay type: in vivo, Echinochloa crus-galli (L.) P. Beauv.
SCPJU = assay: as above; assay type: in vivo, Schoenoplectus juncoides (Roxb.) Palla
FIMMI = assay: as above; assay type: in vivo, Fimbristylis miliacea (L.) Vahl; details: 8.75 g ae/ha alone

Compound: COC(=O)c1cc(Oc2ccc(Cl)cc2Cl)ccc1[N+](=O)[O-] [Bifenox, methyl 5-(2,4-dichlorophenoxy)-2-nitrobenzoate]
- Visual Weed Control (%) - 21 DAA ECHOR Obs (ECHOR; Bifenox (technical) 720 g ai/ha alone): 40%
- Visual Weed Control (%) - 21 DAA IPOHE Obs (IPOHE; g ae/ha Compound A Benzyl Ester+g ai/ha bifenox (Fox ®): r11 16+0, r12 32+0, r13 0+180, r14 16+180, r15 32+180): 55%
- Visual Weed Control (%) - 21 DAA CYPIR Obs (CYPIR; g ae/ha Compound A Benzyl Ester+g ai/ha bifenox (Fox ®): r17 8+0, r18 0+180, r19 0+360, r20 0+720, r21 8+180, r22 8+360, r23 8+720): 0%
- Visual Weed Control (%) - 22 DAA CYPIR Obs (CYPIR; g ae/ha Compound A Benzyl Ester+g ai/ha bifenox (technical): r23 8+0, r24 16+0, r25 0+180, r26 0+720, r27 8+180, r28 16+180, r29 8+720, r30 16+720): 0%
- Visual Weed Control (%) - 21 DAA SCPMA Obs (SCPMA): 40%
- Visual Weed Control (%) - 21 DAA PAPRH Obs (PAPRH; 180 g ai/ha alone): 5%
- Visual Weed Control (%) - 21 DAA PAPRH Obs (PAPRH; 360 g ai/ha alone): 8%
- Visual Weed Control (%) - 21 DAA PAPRH Obs (PAPRH; 780 g ai/ha alone): 8%

Compound: COc1c(Cl)ccc(-c2nc(C(=O)O)c(Cl)c(N)c2F)c1F [Compound A Acid, 4-amino-3-chloro-5-fluoro-6-(4-chloro-2-fluoro-3-methoxy-phenyl)pyridine-2-carboxylic acid]
- Visual Weed Control (%) - 19 DAA LEFCH Obs (LEFCH [1]): 5%
- Visual Weed Control (%) - 20 DAA LEFCH Obs (LEFCH [2]; 17.5 g ae/ha alone): 0%
- Visual Weed Control (%) - 20 DAA LEFCH Obs (LEFCH [2]; 35 g ae/ha alone): 30%
- Visual Weed Control (%) - 21 DAA LEFCH Obs (LEFCH [2]; 35 g ae/ha alone): 5%
- Visual Weed Control (%) - 21 DAA LEFCH Obs (LEFCH [2]; 70 g ae/ha alone): 23%
- Visual Weed Control (%) - 19 DAA ECHOR Obs (ECHOR; g ae/ha Compound A Acid+g ai/ha carfentrazone-ethyl: r28 42.4+0, r29 0+215, r30 42.4+215): 15%
- Visual Weed Control (%) - 20 DAA IPOHE Obs (IPOHE; first section, g ae/ha Compound A Acid+g ai/ha oxadiazon: r12 8.75+0, r13 0+31.25, r14 0+62.5, r15 0+125, r16 8.75+31.25, r17 8.75+62.5, r18 8.75+125): 10%
- Visual Weed Control (%) - 21 DAA IPOHE Obs (IPOHE; g ae/ha Compound A Acid+g ai/ha pyraclonil: r53 35+0, r54 0+270, r55 35+270): 45%
- Visual Weed Control (%) - 20 DAA BRAPP Obs (BRAPP): 10%
- Visual Weed Control (%) - 20 DAA ECHCO Obs (ECHCO): 40%
- Visual Weed Control (%) - 20 DAA CYPRO Obs (CYPRO; 8.75 g ae/ha alone): 0%
- Visual Weed Control (%) - 20 DAA CYPRO Obs (CYPRO; 17.5 g ae/ha alone): 20%
- Visual Weed Control (%) - 20 DAA CYPRO Obs (CYPRO; 35 g ae/ha alone): 80%
- Visual Weed Control (%) - 21 DAA CYPRO Obs (CYPRO; 35 g ae/ha alone): 70%
- Visual Weed Control (%) - 21 DAA ECHCG Obs (ECHCG; 8.75 g ae/ha alone): 15%
- Visual Weed Control (%) - 20 DAA ECHCG Obs (ECHCG; 17.5 g ae/ha alone): 50%
- Visual Weed Control (%) - 21 DAA ECHCG Obs (ECHCG; 17.5 g ae/ha alone): 20%
- Visual Weed Control (%) - 20 DAA ECHCG Obs (ECHCG; 35 g ae/ha alone): 95%
- Visual Weed Control (%) - 21 DAA ECHCG Obs (ECHCG; 35 g ae/ha alone): 95%
- Visual Weed Control (%) - 21 DAA SCPJU Obs (SCPJU; 8.75 g ae/ha alone): 40%
- Visual Weed Control (%) - 21 DAA SCPJU Obs (SCPJU; 17.5 g ae/ha alone): 60%
- Visual Weed Control (%) - 21 DAA SCPJU Obs (SCPJU; 35 g ae/ha alone): 95%
- Visual Weed Control (%) - 21 DAA FIMMI Obs (FIMMI): 0%
- Visual Weed Control (%) - 20 DAA CYPIR Obs (CYPIR; g ae/ha Compound A Acid+g ai/ha saflufenacil: r24 4.38+0, r25 0+5, r26 0+10, r27 0+20, r28 4.38+5, r29 4.38+10, r30 4.38+20): 30%
